{
  "source": "patent US20070015828A1",
  "about": "(Wyeth, priority 2005, published 2007)",
  "key": {"[1]": {"target": "Adrenergic, Alpha 2C (hr) (Homo sapiens, UniProt P18825)", "sequence (P18825 whole entry)": "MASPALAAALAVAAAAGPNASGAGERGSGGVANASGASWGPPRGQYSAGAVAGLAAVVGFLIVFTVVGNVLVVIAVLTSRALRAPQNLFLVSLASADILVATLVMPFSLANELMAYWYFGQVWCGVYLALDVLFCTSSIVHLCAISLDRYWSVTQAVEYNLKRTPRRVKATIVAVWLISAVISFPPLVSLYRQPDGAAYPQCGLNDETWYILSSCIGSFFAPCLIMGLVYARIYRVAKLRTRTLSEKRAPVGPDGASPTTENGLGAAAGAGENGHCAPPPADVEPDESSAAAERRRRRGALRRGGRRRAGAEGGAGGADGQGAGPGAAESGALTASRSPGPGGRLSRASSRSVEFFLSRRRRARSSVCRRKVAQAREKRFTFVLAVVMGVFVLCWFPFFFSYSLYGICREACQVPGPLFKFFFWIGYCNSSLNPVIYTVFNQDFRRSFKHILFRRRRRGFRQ", "assay": "Receptor binding assay: Adrenergic Alpha 2C", "details": "Test Compound @ 10 1 M"}, "Adenosine A1": {"tested_on": "Adenosine A1", "assay": "Receptor binding assay: Adenosine A1", "details": "Test Compound @ 10 1 M"}, "Cannabinoid, CB2 (hr)": {"target": "Cannabinoid, CB2 (hr) (Homo sapiens, UniProt P34972)", "sequence (P34972 whole entry)": "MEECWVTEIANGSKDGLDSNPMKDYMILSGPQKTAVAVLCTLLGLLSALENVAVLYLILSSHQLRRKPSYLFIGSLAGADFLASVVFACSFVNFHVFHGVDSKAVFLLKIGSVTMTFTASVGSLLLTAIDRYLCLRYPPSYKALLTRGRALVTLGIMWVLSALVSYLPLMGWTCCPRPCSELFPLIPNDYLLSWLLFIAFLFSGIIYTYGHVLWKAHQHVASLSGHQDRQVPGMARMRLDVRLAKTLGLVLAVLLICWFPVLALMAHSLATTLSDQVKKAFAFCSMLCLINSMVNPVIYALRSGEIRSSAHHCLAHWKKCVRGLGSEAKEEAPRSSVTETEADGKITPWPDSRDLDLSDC", "assay": "Receptor binding assay: Cannabinoid CB2", "details": "Test Compound @ 10 1 M"}, "Histamine, H1": {"target": "T1, Histamine, H1 (Bos taurus, UniProt P30546)", "T1 construct": "Novascreen (assay provider)", "T1 sequence (P30546 whole entry)": "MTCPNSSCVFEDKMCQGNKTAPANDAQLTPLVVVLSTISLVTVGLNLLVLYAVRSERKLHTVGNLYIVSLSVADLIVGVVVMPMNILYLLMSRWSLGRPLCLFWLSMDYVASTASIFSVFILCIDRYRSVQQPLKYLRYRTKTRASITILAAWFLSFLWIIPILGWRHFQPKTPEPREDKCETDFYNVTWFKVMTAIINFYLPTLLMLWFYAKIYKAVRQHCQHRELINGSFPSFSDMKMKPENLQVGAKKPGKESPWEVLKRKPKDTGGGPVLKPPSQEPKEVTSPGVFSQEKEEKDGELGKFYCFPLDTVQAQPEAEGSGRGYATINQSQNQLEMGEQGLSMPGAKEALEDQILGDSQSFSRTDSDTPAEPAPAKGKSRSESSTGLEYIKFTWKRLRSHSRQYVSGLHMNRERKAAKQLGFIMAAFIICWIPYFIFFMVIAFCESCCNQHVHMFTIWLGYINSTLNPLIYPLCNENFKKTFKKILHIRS", "assay": "Histamine H1 binding assay", "details": "Test Compound @ 10 1 M, read-out: Receptor Binding % Inhibition"}, "cortical 5-HT": {"tested_on": "cortical 5-HT", "assay": "Microdialysis study, rat dorsal lateral frontal cortex", "assay_type": "in vivo", "details": "male Sprague-Dawley rats, 30 mg/kg, combined with 5-HT1A antagonist WAY-100635 (0.3 mg/kg, s.c.) given 20 min before", "description": "1-[2-dimethylamino-1-(4-phenol)ethyl]-cis-1,4-cyclohexandiol was evaluated in a microdialysis study conducted in male Sprague-Dawley rats [M T Taber et al, Differential effects of coadministration of fluoxetine and WAY-100635 on serotonergic neurotransmission in vivo: sensitivity to sequence of injections, Synapse, 2000 October; 38(1):17-26.] This technique can capture the neurochemical effects of compounds in the brains of freely-moving rodents. The effects of 1-[2-dimethylamino-1-(4-phenol)ethyl]-cis-1,4-cyclohexandiol were studied in the rat dorsal lateral frontal cortex, a brain region thought to be involved in etiology and/or treatment of depression. To see whether any effects on serotonin could be observed, the compound (30 mg/kg, sc) was tested in combination with the selective 5-HT1A antagonist, N-[2-[4-(2-methoxyphenyl)-1-piperazinyl] ethyl]-N-(2-pyridinyl)cyclohexanecarboxamide (WAY-100635). […]\n• 24 hr post-operative recovery • 3 hr equilibration after probe insertion • 1 hr 40 min baseline • 5-HT1A antagonist N-[2-[4-(2-methoxyphenyl)-1-piperazinyl]ethyl]-N-(2-pyridinyl)cyclohexanecarboxamide [WAY-100635] (0.3 mg/kg, s.c.) given 20 min before 1-[2-dimethylamino-1-(4-phenol)ethyl]-cis-1,4-cyclohexandiol (30 mg/kg, […]) Sample Collection: Samples collected for 3 hr 2 min post-injections Analysis: 5-HT levels quantified by HPLC-ECD"}, "GABA A, Agonist site": {"tested_on": "GABA A, Agonist site", "assay": "Receptor binding assay: GABA A agonist site", "details": "Test Compound @ 10 1 M"}, "[2]": {"assay": "Solution Stability in aqueous solutions", "assay_type": "physicochemical", "details": "room temperature, all aqueous solutions (pH 1.4-10.0)"}, "Imidazoline, I2 central": {"tested_on": "Imidazoline, I2 central", "assay": "Imidazoline binding assay: I2 central", "details": "Test Compound @ 10 1 M"}, "[3]": {"assay": "In vitro metabolism in hepatic microsomes, rat", "assay_type": "in vitro ADME", "details": "Sprague-Dawley rats, read-out: t1/2 in hepatic microsomes", "description": "In vitro metabolism of 1-[2-dimethylamino-1-(4-phenol)ethyl]-cis-1,4-cyclohexandiol was conducted in the hepatic microsomes of Sprague-Dawley rats, male dogs, male monkeys and mixed male and female humans to characterize metabolic stability and identification of metabolites. 1-[2-dimethylamino-1-(4-phenol)ethyl]-cis-1,4-cyclohexandiol was stable (t1/2>60 minutes) in hepatic microsomes indicating Phase I and II metabolism was minimal in all species."}, "Adrenergic, Alpha 2B": {"tested_on": "Adrenergic, Alpha 2B", "assay": "Receptor binding assay: Adrenergic Alpha 2B", "details": "Test Compound @ 10 1 M"}, "Oxidase, MAO-A, Central": {"tested_on": "Oxidase, MAO-A, Central", "assay": "Receptor binding assay: Oxidase MAO-A central (second line)", "details": "Test Compound @ 10 1 M"}, "Serotonin, 5HT1D (h)": {"target": "T2, Serotonin, 5HT1D (h) (Homo sapiens, UniProt P28221)", "T2 construct": "Novascreen (contract assay)", "T2 sequence (P28221 whole entry)": "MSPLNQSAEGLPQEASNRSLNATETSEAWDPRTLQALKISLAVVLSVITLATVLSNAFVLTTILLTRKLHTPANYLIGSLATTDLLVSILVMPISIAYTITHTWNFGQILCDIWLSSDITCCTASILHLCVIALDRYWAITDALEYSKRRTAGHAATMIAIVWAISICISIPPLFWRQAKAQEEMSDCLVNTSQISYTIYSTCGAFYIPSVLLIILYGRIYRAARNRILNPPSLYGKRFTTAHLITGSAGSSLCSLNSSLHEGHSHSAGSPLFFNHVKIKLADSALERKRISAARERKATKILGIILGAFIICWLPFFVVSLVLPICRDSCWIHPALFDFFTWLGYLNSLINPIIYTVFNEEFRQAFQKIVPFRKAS", "assay": "Receptor binding assay: Serotonin 5HT1D", "details": "Test Compound @ 10 1 M"}, "[4]": {"target": "T3, Norepinephrine transporter (Homo sapiens, UniProt P23975)", "T3 construct": "Novascreen (contract assay)", "T3 sequence (P23975 whole entry)": "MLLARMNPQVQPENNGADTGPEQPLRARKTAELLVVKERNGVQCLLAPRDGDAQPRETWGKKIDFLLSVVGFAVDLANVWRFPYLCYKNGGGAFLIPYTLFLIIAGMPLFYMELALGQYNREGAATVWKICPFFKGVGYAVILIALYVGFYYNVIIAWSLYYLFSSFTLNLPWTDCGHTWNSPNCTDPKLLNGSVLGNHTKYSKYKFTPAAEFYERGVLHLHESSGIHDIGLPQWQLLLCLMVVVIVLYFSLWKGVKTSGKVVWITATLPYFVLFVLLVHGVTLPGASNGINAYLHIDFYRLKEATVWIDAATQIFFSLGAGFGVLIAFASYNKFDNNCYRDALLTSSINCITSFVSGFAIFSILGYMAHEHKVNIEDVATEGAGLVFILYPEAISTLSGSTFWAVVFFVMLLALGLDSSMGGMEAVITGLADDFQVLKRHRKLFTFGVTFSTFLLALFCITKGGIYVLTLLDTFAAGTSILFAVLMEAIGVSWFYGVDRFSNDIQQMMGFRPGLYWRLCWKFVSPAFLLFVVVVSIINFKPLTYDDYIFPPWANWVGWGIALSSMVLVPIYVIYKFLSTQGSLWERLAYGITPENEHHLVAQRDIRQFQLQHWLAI", "assay": "Norepinephrine transporter (human recombinant) binding assay"}, "[5]": {"tested_on": "mouse PPQ induced writhing model", "assay": "Visceral pain model: PPQ-induced constrictions (writhing)", "assay_type": "in vivo", "description": "1-[2-dimethylamino-1-(4-phenol)ethyl]-cis-1,4-cyclohexandiol was dissolved in sterile saline and administered orally (p.o.) at dosages of 10 mg/kg, 30 mg/kg and 100 mg/kg. Gabapentin was purchased from Toronto Research Chemicals (Ontario, Canada) and suspended in 2% Tween 80 in 0.5% methylcellulose and administered intraperitoneally (i.p.).\nFor the visceral pain study male CD-1 mice (20-25 g, Charles River; Kingston/Stoneridge, NY) were housed in groups of 5/cage on bedding and for the neuropathic study male Sprague-Dawley rats (125-150 g, Harlan; Indianapolis, Ind.) were housed 3/cage on bedding. […]\nThe ability of 1-[2-dimethylamino-1-(4-phenol)ethyl]-cis-1,4-cyclohexandiol to attenuate acute visceral (abdominal) pain was assessed following an i.p. injection of 2 mg/kg PPQ (dissolved in 4% ethanol in distilled water, Sigma-Aldrich, St. Louis, Mo.) [Siegmund, E., et al., Proceedings of the Society for Experimental Biology and Medicine., 95 (1957) […]]. […] During testing, following PPQ administration, mice were individually placed in a Plexiglas cage and the total number of abdominal constrictions was recorded for one-minute periods, starting at 5 and 10 minutes after PPQ injection.\nStatistical significance was determined using a one-way ANOVA using a customized SAS-excel application (SAS Institute, Cary, N.C.). […]"}, "[6]": {"target": "T4, Benzodiazepine, peripheral (h) (Homo sapiens, UniProt P30536)", "T4 construct": "Novascreen (assay provider)", "T4 sequence (P30536 whole entry)": "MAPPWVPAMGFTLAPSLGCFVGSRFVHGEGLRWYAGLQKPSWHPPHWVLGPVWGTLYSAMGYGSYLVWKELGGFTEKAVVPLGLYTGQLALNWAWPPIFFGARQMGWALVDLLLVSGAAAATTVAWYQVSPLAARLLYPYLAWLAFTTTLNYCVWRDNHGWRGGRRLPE", "assay": "Receptor binding assay: Benzodiazepine peripheral", "details": "Test Compound @ 10 1 M"}, "Dopamine, D1 (hr)": {"target": "Dopamine, D1 (hr) (Homo sapiens, UniProt P21728)", "sequence (P21728 whole entry)": "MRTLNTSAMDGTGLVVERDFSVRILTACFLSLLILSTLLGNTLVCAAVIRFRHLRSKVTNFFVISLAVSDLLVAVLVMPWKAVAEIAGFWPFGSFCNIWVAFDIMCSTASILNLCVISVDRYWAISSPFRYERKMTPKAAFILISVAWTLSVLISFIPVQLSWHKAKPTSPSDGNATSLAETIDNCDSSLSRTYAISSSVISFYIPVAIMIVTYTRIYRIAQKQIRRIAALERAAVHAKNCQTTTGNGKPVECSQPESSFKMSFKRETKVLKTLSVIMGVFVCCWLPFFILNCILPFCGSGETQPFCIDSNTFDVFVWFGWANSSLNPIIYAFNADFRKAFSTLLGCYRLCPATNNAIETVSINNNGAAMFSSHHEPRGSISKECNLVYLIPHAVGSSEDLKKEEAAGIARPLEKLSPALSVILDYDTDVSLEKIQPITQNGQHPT", "assay": "Receptor binding assay: Dopamine D1", "details": "Test Compound @ 10 1 M"}, "Dopamine, D3 (hr)": {"target": "Dopamine, D3 (hr) (Homo sapiens, UniProt P35462)", "sequence (P35462 whole entry)": "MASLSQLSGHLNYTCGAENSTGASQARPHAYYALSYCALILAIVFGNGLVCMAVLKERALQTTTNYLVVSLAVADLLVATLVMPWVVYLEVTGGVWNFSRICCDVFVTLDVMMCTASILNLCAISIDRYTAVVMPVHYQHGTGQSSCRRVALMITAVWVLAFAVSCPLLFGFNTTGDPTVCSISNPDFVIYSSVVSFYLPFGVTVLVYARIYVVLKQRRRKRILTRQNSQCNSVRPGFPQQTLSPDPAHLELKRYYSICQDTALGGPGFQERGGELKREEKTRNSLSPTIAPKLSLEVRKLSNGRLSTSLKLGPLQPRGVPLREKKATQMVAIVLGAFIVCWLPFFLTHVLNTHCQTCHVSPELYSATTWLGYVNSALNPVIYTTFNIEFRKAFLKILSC", "assay": "Receptor binding assay: Dopamine D3", "details": "Test Compound @ 10 1 M"}, "Muscarinic, M3 (hr)": {"target": "T5, Muscarinic, M3 (hr) (Homo sapiens, UniProt P20309)", "T5 construct": "Novascreen (contract assay)", "T5 sequence (P20309 whole entry)": "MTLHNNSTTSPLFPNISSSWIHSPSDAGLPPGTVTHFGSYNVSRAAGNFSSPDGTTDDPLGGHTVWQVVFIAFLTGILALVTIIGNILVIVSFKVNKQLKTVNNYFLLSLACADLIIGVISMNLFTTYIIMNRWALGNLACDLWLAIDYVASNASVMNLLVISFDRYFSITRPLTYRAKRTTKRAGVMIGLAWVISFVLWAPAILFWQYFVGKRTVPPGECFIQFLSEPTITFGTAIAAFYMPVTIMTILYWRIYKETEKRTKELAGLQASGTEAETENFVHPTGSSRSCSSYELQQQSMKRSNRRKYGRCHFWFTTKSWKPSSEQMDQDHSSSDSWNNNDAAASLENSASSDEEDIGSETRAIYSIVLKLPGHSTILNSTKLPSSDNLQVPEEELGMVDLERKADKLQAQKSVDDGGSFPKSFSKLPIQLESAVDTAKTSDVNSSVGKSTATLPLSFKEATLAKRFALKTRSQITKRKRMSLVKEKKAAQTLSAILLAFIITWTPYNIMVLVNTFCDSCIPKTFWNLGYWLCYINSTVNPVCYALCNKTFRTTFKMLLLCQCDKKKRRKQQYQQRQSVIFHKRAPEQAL", "assay": "Receptor binding assay: Muscarinic M3", "details": "Test Compound @ 10 1 M"}},
  "note": "Entries after “also recorded” stand apart in the source; their conditions may differ.",
  "data": [
    {"smiles": "CN(C)CC(c1ccc(O)cc1)C1(O)CCC(O)CC1", "note": "(stereo not drawn) [1-[2-dimethylamino-1-(4-phenol)ethyl]-cis-1,4-cyclohexandiol]", "values": [
      {"measurement": "inhibition at 10 µM", "setting": "[1]", "result": 3.06, "unit": "%"},
      {"measurement": "Receptor Binding % Inhibition", "setting": "Adenosine A1", "result": "−8.51", "unit": "%"},
      {"measurement": "inhibition at 10 µM", "setting": "Cannabinoid, CB2 (hr)", "result": 15.7, "unit": "%"},
      {"measurement": "inhibition at 10 µM", "setting": "Histamine, H1", "result": -7.84, "unit": "%"},
      {"measurement": "cortical 5-HT levels", "setting": "cortical 5-HT", "result": "Robust elevations"},
      {"measurement": "Receptor Binding % Inhibition", "setting": "GABA A, Agonist site", "result": "−16.06", "unit": "%"},
      {"measurement": "Solution Stability, time stable", "setting": "[2]", "result": "The compound was stable for at least 24 hours"},
      {"measurement": "Receptor Binding % Inhibition", "setting": "Imidazoline, I2 central", "result": 3.24, "unit": "%"},
      {"measurement": "half-life", "setting": "[3]", "result": "> 1", "unit": "h"},
      {"measurement": "Receptor Binding % Inhibition", "setting": "Adrenergic, Alpha 2B", "result": 8.60, "unit": "%"},
      {"measurement": "Receptor Binding % Inhibition", "setting": "Oxidase, MAO-A, Central", "result": 2.43, "unit": "%"},
      {"measurement": "inhibition at 10 µM", "setting": "Serotonin, 5HT1D (h)", "result": 7.26, "unit": "%"},
      {"measurement": "inhibition at 10 µM", "setting": "[4]; Norepinephrine transporter, Test Compound @ 10 1 M, read-out: Receptor Binding % Inhibition", "result": 49.7, "unit": "%"},
      {"measurement": "norepinephrine reuptake inhibition activity", "setting": "[4]; interpretation of the binding data in words", "result": "acceptable"},
      {"measurement": "reversal of visceral pain (reduction in writhing)", "setting": "[5]; 100 mg/kg p.o., 60 minutes prior to PPQ, 100 mg/kg", "result": "statistically significant reversal; also recorded: significant reduction"},
      {"measurement": "reduction in writhing", "setting": "[5]; 10 and 30 mg/kg p.o.", "result": "not statistically significant"},
      {"measurement": "inhibition at 10 µM", "setting": "[6]", "result": 1.65, "unit": "%"},
      {"measurement": "inhibition at 10 µM", "setting": "Dopamine, D1 (hr)", "result": -5.73, "unit": "%"},
      {"measurement": "inhibition at 10 µM", "setting": "Dopamine, D3 (hr)", "result": 3.36, "unit": "%"},
      {"measurement": "inhibition at 10 µM", "setting": "Muscarinic, M3 (hr)", "result": 0.11, "unit": "%"}
    ]}
  ]
}
